Laboratory results: PubChem BioAssay AID1963869 (Molecular Pharmacology Branch, DTP, NCI, 2024)

Tested on: KRAS patient-derived spheroids with HUVEC/MSC, viability
Experiment: Anticancer human tumor 323965-272-R-J2-PDC patient-derived pancreatic carcinoma cell line growth inhibition [KRAS2]
Details: for IC50: curve of first compound; for viability, T/C: stronger effect = lower value
Excerpt: Multicellular complex tumor spheroid response to RAS pathway inhibitors in combination with a targeted agents in patient-derived cell lines with oncogenic KRAS variants from multiple cancer types
A high-throughput screen of multi-cell type tumor spheroids was designed to identify active combinations of targeted small molecules and KRAS pathway inhibitors. Complex spheroids include a stromal component modeled by human endothelial cells (HUVEC) and fibroblasts modeled by human mesenchymal stem cells (MSCs). The concentration ranges selected for each drug and investigational agent were based upon clinically achievable concentrations if the clinical Cmax of the agent was known.
Compounds. The drugs and investigational agents: BI-3406 (NSC825286), BAY-293 (NSC824723), batoprotafib (TNO155; NSC825523), sotorasib (AMG 510; NSC818433), MRTX1257 (NSC819558), elimusertib (BAY 1895344; NSC800525), molibresib (GSK525762; NSC774829), temuterkib (LY3214996; NSC803410), venetoclax (NSC766270), alisertib (NSC759677), olaparib (NSC753686), talazoparib (NSC767125), erdafitinib (NSC781556), ipatasertib (NSC767898), cabozantinib (NSC761068), nintedanib (NSC756659), abemaciclib (NSC768073), docetaxel (NSC628503), trametinib (NSC758246), and sapanisertib (NSC764658) were obtained from the National Cancer Institute (NCI) Developmental Therapeutics Program Chemical Repository. The FDA-approved anticancer drug set is available from the Developmental Therapeutics Program. […] The stock solutions were prepared in dimethyl sulfoxide (DMSO, Sigma-Aldrich, St. Louis, MO, cat. D2650) at 800-fold the tested concentration and stored at -70 degrees C prior to their use. All drugs and investigational agents were tested over a range starting from a high concentration at or near the clinical Cmax and decreasing in half-log increments. If the clinical Cmax for an agent had not been determined, the highest concentration tested was 10 microM.
Cell Culture. All cells were maintained in an incubator at 37 degrees C and 5% CO2 with 95% humidity. The PDC lines were cultured according to standard operating procedures established by the NCI PDMR (https://pdmr.cancer.gov/sops/default.htm). Briefly, all PDCs were thawed and cultured in Matrigel-coated flasks prepared with a working solution of 1X Ham's F-12 nutrient mix, without supplementation (Invitrogen, Waltham, MA, cat. 11765054), 100 U/mL penicillin-streptomycin (Invitrogen, cat. 15140122), and 2.5% Matrigel (Corning Inc., Corning, NY, cat. 354248) for the first three passages. All PDCs were cultured in complete DMEM/F-12 media containing advanced DMEM/F-12 (Invitrogen, cat. 12634028), 4.9% defined fetal bovine serum, heat inactivated (HyClone Laboratories Inc., Logan, UT, cat. SH30070.03HI), 389 ng/mL hydrocortisone (Sigma-Aldrich, cat. H4001), 9.7 ng/mL human EGF recombinant protein (Invitrogen, cat. PHG0313), 23.4 microg/mL adenine (Sigma-Aldrich, cat. A2786), 97.3 U/mL penicillin-streptomycin (Invitrogen, cat. 15140122), 1.9 mM L-glutamine (Invitrogen, cat. 25030081), and 9.7 microM Y-27632 dihydrochloride (Tocris Bioscience, Bristol, United Kingdom, cat. 1254). The PDCs were cultured in complete DMEM/F12 media without 9.7 microM Y-27632 dihydrochloride for at least two passages prior to the screen. The established cell line HOP-62 was cultured in RPMI 1640 medium, HEPES (Invitrogen, cat. 22400105) with 10% defined fetal bovine serum (HyClone Laboratories Inc., cat. SH30070.03) and 2 mM L-glutamine (Invitrogen, cat. 25030081). The pooled donor HUVEC were cultured in endothelial cell growth medium 2 (PromoCell, Heidelberg, Germany, cat. C-22011) and the hMSC were cultured in mesenchymal stem cell growth medium 2 (PromoCell, cat. C-28009). For all experiments, HUVEC and hMSC were used at passages </=5, while the malignant cell lines were used at passages </=15. […]

[1] = second compound 0.1 µM, first compound 0.0316 µM
[2] = second compound 0.1 µM, first compound 0.1 µM
[3] = second compound 0.316 µM, first compound 0.0316 µM
[4] = second compound 0.316 µM, first compound 0.1 µM
[5] = second compound 1 µM, first compound 0.0316 µM
[6] = second compound 1 µM, first compound 0.1 µM
[7] = second compound 3.16 µM, first compound 0.0316 µM
[8] = second compound 3.16 µM, first compound 0.1 µM
[9] = second compound 10 µM, first compound 0.0316 µM
[10] = second compound 10 µM, first compound 0.1 µM
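Further: spheroids exposed to agents for 7 days.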
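Wherever viability, T/C is given: 100% = DMSO vehicle control viability.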

Question: `CC1(C)CCC(CN2CCN(c3ccc(C(=O)NS(=O)(=O)c4ccc(NCC5CCOCC5)c([N+](=O)[O-])c4)c(Oc4cnc5[nH]ccc5c4)c3)CC2)=C(c2ccc(Cl)cc2)C1` + C=CC(=O)N1CCN(c2nc(=O)n(-c3c(C)ccnc3C(C)C)c3nc(-c4c(O)cccc4F)c(F)cc23)C(C)C1 was tested. Which IC50 (second compound 0.1 µM) did it give?
Answer: The IC50 was 1100 nM.

Question: What about the IC50 (second compound 0.316 µM) of the same compound?
Answer: Its IC50 is 1320 nM.

Question: What about the IC50 (second compound 1 µM) of the same compound?
Answer: Its IC50 is 1260 nM.

Question: And the IC50 (second compound 3.16 µM)?
Answer: Its IC50 is 1210 nM.

Question: And the IC50 (second compound 10 µM)?
Answer: Its IC50 is 81.8 nM.

Question: What about the viability, T/C [1] of the same compound?
Answer: Its viability, T/C is 59.2%.

Question: What about the viability, T/C [2] of the same compound?
Answer: Its viability, T/C is 59.6%.

Question: What about the viability, T/C (second compound 0.1 µM, first compound 0.316 µM) of the same compound?
Answer: Its viability, T/C is 63.3%.

Question: And the viability, T/C (second compound 0.1 µM, first compound 1 µM)?
Answer: The viability, T/C was 52.7%.

Question: And the viability, T/C (second compound 0.1 µM, first compound 3.16 µM)?
Answer: The viability, T/C was 17%.

Question: What about the viability, T/C (second compound 0.1 µM, first compound 10 µM) of the same compound?
Answer: Its viability, T/C is 4.37%.

Question: What about the viability, T/C [3] of the same compound?
Answer: Its viability, T/C is 64.6%.

Question: And the viability, T/C [4]?
Answer: The viability, T/C was 58.1%.

Question: What about the viability, T/C (second compound 0.316 µM, first compound 0.316 µM) of the same compound?
Answer: The viability, T/C was 56.3%.

Question: What about the viability, T/C (second compound 0.316 µM, first compound 1 µM) of the same compound?
Answer: The viability, T/C was 60.4%.

Question: And the viability, T/C (second compound 0.316 µM, first compound 3.16 µM)?
Answer: Its viability, T/C is 18.8%.

Question: What about the viability, T/C (second compound 0.316 µM, first compound 10 µM) of the same compound?
Answer: The viability, T/C was 5.39%.

Question: And the viability, T/C [5]?
Answer: The viability, T/C was 61.1%.

Question: What about the viability, T/C [6] of the same compound?
Answer: The viability, T/C was 61.9%.

Question: What about the viability, T/C (second compound 1 µM, first compound 0.316 µM) of the same compound?
Answer: The viability, T/C was 60.3%.

Question: What about the viability, T/C (second compound 1 µM, first compound 1 µM) of the same compound?
Answer: Its viability, T/C is 59.5%.

Question: And the viability, T/C (second compound 1 µM, first compound 3.16 µM)?
Answer: The viability, T/C was 12%.

Question: What about the viability, T/C (second compound 1 µM, first compound 10 µM) of the same compound?
Answer: Its viability, T/C is 2.97%.

Question: What about the viability, T/C [7] of the same compound?
Answer: The viability, T/C was 62%.

Question: And the viability, T/C [8]?
Answer: Its viability, T/C is 62.3%.

Question: And the viability, T/C (second compound 3.16 µM, first compound 0.316 µM)?
Answer: The viability, T/C was 57.8%.

Question: And the viability, T/C (second compound 3.16 µM, first compound 1 µM)?
Answer: The viability, T/C was 56.9%.

Question: What about the viability, T/C (second compound 3.16 µM, first compound 3.16 µM) of the same compound?
Answer: The viability, T/C was 15.8%.

Question: What about the viability, T/C (second compound 3.16 µM, first compound 10 µM) of the same compound?
Answer: The viability, T/C was 5.2%.

Question: What about the viability, T/C [9] of the same compound?
Answer: The viability, T/C was 61%.

Question: What about the viability, T/C [10] of the same compound?
Answer: Its viability, T/C is 37.6%.

Question: What about the viability, T/C (second compound 10 µM, first compound 0.316 µM) of the same compound?
Answer: Its viability, T/C is 43.4%.

Question: What about the viability, T/C (second compound 10 µM, first compound 1 µM) of the same compound?
Answer: Its viability, T/C is 36.3%.

Question: What about the viability, T/C (second compound 10 µM, first compound 3.16 µM) of the same compound?
Answer: Its viability, T/C is 15.8%.

Question: And the viability, T/C (second compound 10 µM, first compound 10 µM)?
Answer: Its viability, T/C is 2.88%.

Question: With `Cn1ncnc1[C@H]1c2n[nH]c(=O)c3cc(F)cc(c23)N[C@@H]1c1ccc(F)cc1` + C=CC(=O)N1CCN(c2nc(=O)n(-c3c(C)ccnc3C(C)C)c3nc(-c4c(O)cccc4F)c(F)cc23)C(C)C1 as the compound, how does the IC50 (second compound 0.1 µM) read?
Answer: The IC50 was over 100 nM.

Question: What about the IC50 (second compound 0.316 µM) of the same compound?
Answer: The IC50 was over 100 nM.

Question: And the IC50 (second compound 1 µM)?
Answer: The IC50 was over 100 nM.

Question: And the IC50 (second compound 3.16 µM)?
Answer: The IC50 was over 100 nM.

Question: What about the IC50 (second compound 10 µM) of the same compound?
Answer: Its IC50 is 23.7 nM.

Question: What about the viability, T/C (second compound 0.1 µM, first compound 0.000316 µM) of the same compound?
Answer: The viability, T/C was 59.7%.

Question: And the viability, T/C (second compound 0.1 µM, first compound 0.001 µM)?
Answer: The viability, T/C was 65.8%.

Question: And the viability, T/C (second compound 0.1 µM, first compound 0.00316 µM)?
Answer: Its viability, T/C is 58.8%.

Question: What about the viability, T/C (second compound 0.1 µM, first compound 0.01 µM) of the same compound?
Answer: Its viability, T/C is 57.8%.

Question: What about the viability, T/C [1] of the same compound?
Answer: Its viability, T/C is 58.9%.

Question: And the viability, T/C [2]?
Answer: The viability, T/C was 55.7%.

Question: And the viability, T/C (second compound 0.316 µM, first compound 0.000316 µM)?
Answer: Its viability, T/C is 63%.

Question: What about the viability, T/C (second compound 0.316 µM, first compound 0.001 µM) of the same compound?
Answer: The viability, T/C was 63.2%.

Question: What about the viability, T/C (second compound 0.316 µM, first compound 0.00316 µM) of the same compound?
Answer: The viability, T/C was 61.2%.

Question: What about the viability, T/C (second compound 0.316 µM, first compound 0.01 µM) of the same compound?
Answer: Its viability, T/C is 55%.

Question: What about the viability, T/C [3] of the same compound?
Answer: Its viability, T/C is 64%.

Question: And the viability, T/C [4]?
Answer: The viability, T/C was 57.4%.

Question: What about the viability, T/C (second compound 1 µM, first compound 0.000316 µM) of the same compound?
Answer: Its viability, T/C is 72.5%.

Question: What about the viability, T/C (second compound 1 µM, first compound 0.001 µM) of the same compound?
Answer: Its viability, T/C is 64.2%.

Question: What about the viability, T/C (second compound 1 µM, first compound 0.00316 µM) of the same compound?
Answer: Its viability, T/C is 68.3%.

Question: What about the viability, T/C (second compound 1 µM, first compound 0.01 µM) of the same compound?
Answer: The viability, T/C was 58.7%.

Question: What about the viability, T/C [5] of the same compound?
Answer: Its viability, T/C is 63.9%.

Question: And the viability, T/C [6]?
Answer: The viability, T/C was 57%.

Question: What about the viability, T/C (second compound 3.16 µM, first compound 0.000316 µM) of the same compound?
Answer: Its viability, T/C is 63.6%.

Question: And the viability, T/C (second compound 3.16 µM, first compound 0.001 µM)?
Answer: The viability, T/C was 65.6%.

Question: What about the viability, T/C (second compound 3.16 µM, first compound 0.00316 µM) of the same compound?
Answer: The viability, T/C was 63.5%.

Question: And the viability, T/C (second compound 3.16 µM, first compound 0.01 µM)?
Answer: The viability, T/C was 64.7%.

Question: And the viability, T/C [7]?
Answer: Its viability, T/C is 67.3%.

Question: What about the viability, T/C [8] of the same compound?
Answer: Its viability, T/C is 54.6%.

Question: What about the viability, T/C (second compound 10 µM, first compound 0.000316 µM) of the same compound?
Answer: The viability, T/C was 58.8%.

Question: And the viability, T/C (second compound 10 µM, first compound 0.001 µM)?
Answer: The viability, T/C was 62.7%.

Question: And the viability, T/C (second compound 10 µM, first compound 0.00316 µM)?
Answer: The viability, T/C was 57.4%.

Question: What about the viability, T/C (second compound 10 µM, first compound 0.01 µM) of the same compound?
Answer: The viability, T/C was 50.4%.

Question: And the viability, T/C [9]?
Answer: The viability, T/C was 50.9%.

Question: What about the viability, T/C [10] of the same compound?
Answer: Its viability, T/C is 41.2%.
